According to patent US20260097037A1, “FUSED RING COMPOUND HAVING GLP-1 RECEPTOR AGONIST EFFECT” (Shionogi & Co., Ltd., priority 2022, published 2026):

Molecular target: T1, Human GLP-1 receptor stably expressing cells (hGLP-1R/CHO-K1 cells) (Homo sapiens, UniProt P43220)
T1 construct: expressed in transfected cells
Test: Measurement of GLP-1 receptor agonist activity (cAMP assay)
Type: cell-based
Settings: for Emax: CHO-K1, maximum effect, cAMP with 2 nM human GLP-1 (7-36) = 100%, DMSO only = 0%, read-out: Emax; for EC50: increase in cAMP concentration in hGLP-1R/CHO-K1 cells, 37° C. 1 hour
Description: Test Example 1: Measurement of GLP-1 Receptor Agonist Activity
Human GLP-1 receptor stably expressing cells (hGLP-1R/CHO-K1 cells) are cultured in an a-MEM medium (Sigma) containing 10% FBS (Hyclone), 2% GlutaMAX (Gibco), 1% G418 (Nacalai Tesque), and 1% Penicillin-Streptomycin Mixed Solution (Sigma) at 37° C. under 5% CO2 conditions, and recovered by treating a 10 fold diluted 5.0 g/1-trypsin/5.3 mmol/1-EDTA solution (Nacalai Tesque) and cryopreserved.
A DMSO solution containing the compound of the present invention or human GLP-1 (7-36) (Phoenix Pharmaceuticals) is dispensed into a 384-well microplate (Greiner) at 62.5 nL/well, and in addition, 400 μM Forskolin (Nacalai Tesque) is dispensed therein at 7.5 nL/well. Subsequently, the frozen GLP-1 R/CHO-K1 cells are thawed in a thermostatic bath at 37° C., suspended in HBSS buffer (GIBCO) containing 0.1% BSA (Sigma), 20 mM HEPES, 0.1 mM IBMX (Sigma), and 0.2 mM RO20-1724 (Calbiochem) at 2×10^4 cells/mL, and the cell suspension is added at 6 μL/well. The solution was incubated at 37° C. for 1 hour and intracellular cAMP concentration is measured using cAMP Gs dynamic kit (Cisbio) according to the protocol attached to the product. Specifically, a cAMP-d2/Anti-cAMP-Cryptate (1/1) mixture solution is added in a total amount of 6 μL/well, and is incubated at room temperature for 1 hour, and then, time-resolved fluorescence is measured using PHERAstar (BMG Labtech).
Assuming that the cAMP concentration when human GLP-1 (7-36) is dispensed to a final concentration of 2 nM is 100% and the cAMP concentration when only DMSO is dispensed is 0%, the 50% effective concentration (EC50) and the maximum effect (Emax) of the compound of the present invention are calculated using an increase in the cAMP concentration as an index, using TIBCO Spotfire (TIBCO Software). The dilution concentration or the dilution solvent are changed as necessary.
The compounds of the present invention were tested essentially as described above.

T1 sequence (P43220 24-463): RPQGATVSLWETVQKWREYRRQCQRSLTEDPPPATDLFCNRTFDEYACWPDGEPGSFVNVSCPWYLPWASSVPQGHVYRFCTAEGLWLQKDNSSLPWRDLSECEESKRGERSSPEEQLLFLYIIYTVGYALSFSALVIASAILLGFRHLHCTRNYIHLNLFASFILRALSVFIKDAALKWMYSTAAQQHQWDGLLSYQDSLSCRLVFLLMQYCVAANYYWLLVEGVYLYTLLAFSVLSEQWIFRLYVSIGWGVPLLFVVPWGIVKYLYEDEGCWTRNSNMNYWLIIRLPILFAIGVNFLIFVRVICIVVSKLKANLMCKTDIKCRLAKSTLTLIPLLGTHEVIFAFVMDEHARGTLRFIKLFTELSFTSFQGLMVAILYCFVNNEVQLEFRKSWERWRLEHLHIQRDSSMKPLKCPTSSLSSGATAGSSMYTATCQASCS

Emax [%] | EC50 [nM] | SMILES
100 | 0.538 | O=C(O)c1ccc2nc(Cc3ccc4nc(C(F)(F)F)c(OCc5ccc(Cl)cc5F)nc4c3F)n(C[C@@H]3CCO3)c2c1F [Compound I-001]
121 | 0.481 | C[C@H]1c2nc(OCc3ccccc3Cl)c(C(F)F)cc2CCN1Cc1nc2ccc(C(=O)O)c(F)c2n1C[C@@H]1CCO1 [Compound I-120]
83.3 | 32.3 | C[C@H]1c2nc(OCc3nc4ccccn4n3)c(C(F)(F)F)cc2CCN1Cc1nc2ccc(C(=O)O)cc2n1C[C@@H]1CCO1 [Compound I-163]
105 | 0.0187 | COc1cc(C(=O)O)cc2c1nc(CN1CCc3cc(Cl)c(OCc4ccc(Cl)cc4Cl)nc3[C@@H]1C)n2C[C@@H]1CCO1 [Compound I-070]
108 | 1.58 | C[C@H]1c2c(cc(Cl)c3c2OC(C)(c2ccc(Cl)cn2)O3)CCN1Cc1nc2ccc(C(=O)O)cc2n1C[C@@H]1CCO1 (stereo partly shown) [Compound I-092]
105 | 2.88 | C[C@H]1c2cc(OCc3ccc(Cl)cc3)c(C(F)F)cc2CCN1Cc1nc2ccc(C(=O)O)cc2n1C[C@@H]1CCO1 [Compound I-004]
121 | 0.0963 | COc1cc(Cl)ccc1COc1nc2c(cc1C(F)F)CCN(Cc1nc3ccc(C(=O)O)cc3n1C[C@@H]1CCO1)[C@H]2C [Compound I-054]
105 | 0.0992 | C[C@H]1c2nc(NCc3ccc(Cl)cc3F)c(C(F)(F)F)cc2CCN1Cc1nc2c(F)cc(C(=O)O)cc2n1C[C@@H]1CCO1 [Compound I-152]
122 | 0.052 | COc1cc(C(=O)O)cc2c1nc(CN1CCc3cc(C(F)(F)F)c(NCc4ccc(Cl)cc4)nc3[C@@H]1C)n2C[C@@H]1CCO1 [Compound I-167]
66.3 | 83.5 | Cc1nc(COc2nc3c(cc2C(F)(F)F)CCN(Cc2nc4ccc(C(=O)O)cc4n2C[C@@H]2CCO2)[C@H]3C)no1 [Compound I-160]
96.7 | 0.179 | C[C@H]1c2nc(OCc3ccc(Cl)cn3)c(Cl)cc2CCN1Cc1nc2c(F)cc(C(=O)O)cc2n1C[C@@H]1CCO1 [Compound I-081]
104 | 0.0232 | COc1cc(C(=O)O)cc2c1nc(CN1CCc3cc(Cl)c(OCc4c(F)cc(Cl)cc4F)cc3[C@@H]1C)n2C[C@@H]1CCO1 [Compound I-074]
102 | 0.345 | C[C@H]1c2nc(OCc3ccc(Cl)cc3F)c(C(F)(F)F)cc2CCN1Cc1nc2c(-c3ccn(C)n3)cc(C(=O)O)cc2n1C[C@@H]1CCO1 [Compound I-064]
103 | 0.0865 | C[C@H]1c2nc(OCc3c(F)cc(Cl)cc3F)c(Cl)cc2CCN1Cc1nc2c(F)cc(C(=O)O)cc2n1C[C@@H]1CCO1 [Compound I-088]
99.3 | 0.155 | COc1cc(C(=O)O)cc2c1nc(CN1CCc3cc(C(F)(F)F)c4c(c3[C@@H]1C)O[C@@](C)(c1ccc(Cl)cn1)O4)n2C[C@@H]1CCO1 [Compound I-159]
93.7 | 3.31 | C[C@H]1c2nc(OCc3ncc(Cl)s3)c(C(F)(F)F)cc2CCN1Cc1nc2ccc(C(=O)O)cc2n1C[C@@H]1CCO1 [Compound I-048]
122 | 0.0463 | C[C@H]1c2nc(OCc3ccc(Cl)cc3F)c(C(F)F)cc2CCN1Cc1nc2ccc(C(=O)O)c(F)c2n1C[C@@H]1CCO1 [Compound I-116]
101 | 0.0685 | C[C@H]1c2nc(OCc3ccc(C#N)cc3F)c(Cl)cc2CCN1Cc1nc2c(F)cc(C(=O)O)cc2n1C[C@@H]1CCO1 [Compound I-086]
116 | 0.0331 | C[C@H]1c2nc(OCc3c(F)cc(Cl)cc3F)c(C(F)F)cc2CCN1Cc1nc2c(F)cc(C(=O)O)cc2n1C[C@@H]1CCO1 [Compound I-113]
103 | 0.248 | C[C@H]1c2nc(OCc3ccc(F)cc3)c(Cl)cc2CCN1Cc1nc2c(F)cc(C(=O)O)cc2n1C[C@@H]1CCO1 [Compound I-087]
120 | 0.148 | Cc1ccc(COc2nc3c(cc2C(F)F)CCN(Cc2nc4ccc(C(=O)O)c(F)c4n2C[C@@H]2CCO2)[C@H]3C)cc1 [Compound I-119]
123 | 0.0299 | COc1cc(C(=O)O)cc2c1nc(CN1CCc3cc(C(F)F)c(OCc4ccc(F)cc4F)nc3[C@@H]1C)n2C[C@@H]1CCO1 [Compound I-131]

Emax [%] | EC50 [nM] | SMILES
126 | 0.368 | C[C@H]1c2nc(OCc3ccc(C#N)cc3F)c(Cl)cc2CCN1Cc1nc2ccc(C(=O)O)nc2n1C[C@@H]1CCO1 [Compound I-032]
112 | 0.371 | C[C@H]1c2nc(OCc3ncc(Cl)cc3Cl)c(C(F)(F)F)cc2CCN1Cc1nc2ccc(C(=O)O)cc2n1C[C@@H]1CCO1 [Compound I-106]
86.7 | 0.315 | C[C@H]1c2nc(OCc3ccc(Cl)cc3Cl)c(C(F)F)cc2CCN1Cc1nc2ccc(C(=O)O)cc2n1C[C@@H]1CCO1 [Compound I-057]
122 | 0.0208 | COc1cc(C(=O)O)cc2c1nc(CN1CCc3cc(Cl)c(OCc4ccc(Cl)cc4F)nc3[C@@H]1C)n2C[C@@H]1CCO1 [Compound I-076]
122 | 0.969 | C[C@H]1c2cc(OCc3ccc(Cl)cc3Cl)c(C(F)F)cc2CCN1Cc1nc2ccc(C(=O)O)cc2n1C[C@@H]1CCO1 [Compound I-009]
94.7 | 0.0587 | C[C@H]1c2nc(OCc3ccc(Cl)cc3Cl)c(Cl)cc2CCN1Cc1nc2c(F)cc(C(=O)O)cc2n1C[C@@H]1CCO1 [Compound I-084]
103 | 0.137 | C[C@H]1c2nc(NCc3ccc(C#N)cc3F)c(C(F)(F)F)cc2CCN1Cc1nc2c(Cl)cc(C(=O)O)cc2n1C[C@@H]1CCO1 [Compound I-194]
102 | 0.716 | C[C@H]1c2nc(CCc3ccc(Cl)cc3)c(C(F)(F)F)cc2CCN1Cc1nc2ccc(C(=O)O)cc2n1C[C@@H]1CCO1 [Compound I-095]
108 | 1.63 | C[C@H]1c2c(cc(C(F)(F)F)c3c2O[C@@](C)(c2ccc(Cl)cc2F)O3)CCN1Cc1nc2c(F)cc(C(=O)O)cc2n1C[C@@H]1CCO1 [Compound I-164]
97.7 | 1.09 | C[C@H]1c2nc(OCc3nc(Cl)cs3)c(C(F)(F)F)cc2CCN1Cc1nc2ccc(C(=O)O)cc2n1C[C@@H]1CCO1 [Compound I-149]
117 | 7.33 | C[C@H]1c2nc(OCc3cnn(C)n3)c(C(F)(F)F)cc2CCN1Cc1nc2ccc(C(=O)O)cc2n1C[C@@H]1CCO1 [Compound I-142]
98.3 | 0.0605 | COc1cc(C(=O)O)cc2c1nc(CN1CCc3cc(Cl)c(OCc4ccc(C)cc4)nc3[C@@H]1C)n2C[C@@H]1CCO1 [Compound I-067]
123 | 0.466 | C[C@H]1c2nc(OCc3ccc(OC(F)F)cc3F)c(C#N)cc2CCN1Cc1nc2c(Cl)cc(C(=O)O)cc2n1C[C@@H]1CCO1 [Compound I-186]
123 | 0.417 | Cc1ccc(COc2nc3c(cc2C(F)F)CCN(Cc2nc4ccc(C(=O)O)cc4n2C[C@@H]2CCO2)[C@H]3C)cc1 [Compound I-053]
99.3 | 0.89 | C[C@H]1c2nc(OCc3cc(Cl)cs3)c(C(F)(F)F)cc2CCN1Cc1nc2ccc(C(=O)O)cc2n1C[C@@H]1CCO1 [Compound I-148]
120 | 0.531 | C[C@H]1c2nc(OCc3ccccc3Cl)c(C#N)cc2CCN1Cc1nc2c(Cl)cc(C(=O)O)cc2n1C[C@@H]1CCO1 [Compound I-181]
130 | 0.308 | COc1cc(Cl)ccc1COc1cc2c(cc1C(F)F)CCN(Cc1nc3ccc(C(=O)O)cc3n1C[C@@H]1CCO1)[C@H]2C [Compound I-006]
120 | 0.119 | C[C@H]1c2nc(OCc3cc(F)c(Cl)cc3F)c(C#N)cc2CCN1Cc1nc2c(Cl)cc(C(=O)O)cc2n1C[C@@H]1CCO1 [Compound I-188]
103 | 0.247 | C[C@H]1c2nc(SCc3ccc(Cl)cc3F)c(C(F)(F)F)cc2CCN1Cc1nc2ccc(C(=O)O)cc2n1C[C@@H]1CCO1 [Compound I-096]
118 | 0.314 | C[C@H]1c2nc(OCc3cc(F)c(Cl)cc3F)c(Cl)cc2CCN1Cc1nc2ccc(C(=O)O)nc2n1C[C@@H]1CCO1 [Compound I-031]
109 | 0.191 | C[C@H]1c2nc(NCc3ccc(Cl)cc3)c(C(F)(F)F)cc2CCN1Cc1nc2c(F)cc(C(=O)O)cc2n1C[C@@H]1CCO1 [Compound I-169]
97 | 0.902 | C[C@H]1c2nc(OCc3ccccc3Cl)c(C(F)F)cc2CCN1Cc1nc2ccc(C(=O)O)cc2n1C[C@@H]1CCO1 [Compound I-055]
